# Results from US20240415914A1, “Water Dispersible Cannabinoid Compositions” (priority 2021, published 2024).
# Assay: Stability of cannabinoid and Vitamin E components of Beverage 1 (AB White) stored at 8° C. and 21-25° C., LCMSMS over 570 days
# Format: physicochemical
# Conditions: for Chemical stability over the entire period (result in words): AB White, 570 days; for Stability in AB White, 8° C. (content by LCMSMS): beverage stored at 8° C.; for Stability in AB White, 21-25° C. (content by LCMSMS): beverage stored at 21-25° C.
# Experimental: The LCMSMS was calibrated for 0-1000 ng/ml cannabinoids with the same resin material used in the preparation of the concentrates. At each time period, 100 ml of beverage was diluted with 10 ml of methanol and injected into the LCMSMS for analysis.
structure (smiles),measurement,setting,value
"CCCCCc1cc(O)c2c(c1)OC(C)(C)[C@@H]1CCC(C)=C[C@@H]21 [D9 THC, delta-9-tetrahydrocannabinol, reference compound]",Chemical stability over the entire period (result in words),stored at 8° C.,high degree of stability
same,Chemical stability over the entire period (result in words),stored at 21-25° C.,high degree of stability
same,"Stability in AB White, 8° C. (content by LCMSMS)",day 0,12.2 µg/mL
same,"Stability in AB White, 8° C. (content by LCMSMS)",day 1,12.20 µg/mL
same,"Stability in AB White, 8° C. (content by LCMSMS)",day 2,11.91 µg/mL
same,"Stability in AB White, 8° C. (content by LCMSMS)",day 3,12.25 µg/mL
same,"Stability in AB White, 8° C. (content by LCMSMS)",day 5,12.11 µg/mL
same,"Stability in AB White, 8° C. (content by LCMSMS)",day 8,11.83 µg/mL
same,"Stability in AB White, 8° C. (content by LCMSMS)",day 9,12.14 µg/mL
same,"Stability in AB White, 8° C. (content by LCMSMS)",day 10,12.07 µg/mL
same,"Stability in AB White, 8° C. (content by LCMSMS)",day 11,11.83 µg/mL
same,"Stability in AB White, 8° C. (content by LCMSMS)",day 12,11.88 µg/mL
same,"Stability in AB White, 8° C. (content by LCMSMS)",day 15,12.08 µg/mL
same,"Stability in AB White, 8° C. (content by LCMSMS)",day 16,12.18 µg/mL
same,"Stability in AB White, 8° C. (content by LCMSMS)",day 17,12.05 µg/mL
same,"Stability in AB White, 8° C. (content by LCMSMS)",day 18,12.00 µg/mL
same,"Stability in AB White, 8° C. (content by LCMSMS)",day 19,12.11 µg/mL
same,"Stability in AB White, 8° C. (content by LCMSMS)",day 22,11.97 µg/mL
same,"Stability in AB White, 8° C. (content by LCMSMS)",day 23,12.03 µg/mL
same,"Stability in AB White, 8° C. (content by LCMSMS)",day 24,11.87 µg/mL
same,"Stability in AB White, 8° C. (content by LCMSMS)",day 25,11.99 µg/mL
same,"Stability in AB White, 8° C. (content by LCMSMS)",day 26,11.97 µg/mL
same,"Stability in AB White, 8° C. (content by LCMSMS)",day 29,12.25 µg/mL
same,"Stability in AB White, 8° C. (content by LCMSMS)",day 30,12.05 µg/mL
same,"Stability in AB White, 8° C. (content by LCMSMS)",day 60,11.77 µg/mL
same,"Stability in AB White, 8° C. (content by LCMSMS)",day 90,11.92 µg/mL
same,"Stability in AB White, 8° C. (content by LCMSMS)",day 120,11.79 µg/mL
same,"Stability in AB White, 8° C. (content by LCMSMS)",day 150,12.07 µg/mL
same,"Stability in AB White, 8° C. (content by LCMSMS)",day 180,11.66 µg/mL
same,"Stability in AB White, 8° C. (content by LCMSMS)",day 210,11.79 µg/mL
same,"Stability in AB White, 8° C. (content by LCMSMS)",day 240,11.70 µg/mL
same,"Stability in AB White, 8° C. (content by LCMSMS)",day 270,11.98 µg/mL
same,"Stability in AB White, 8° C. (content by LCMSMS)",day 300,11.70 µg/mL
same,"Stability in AB White, 8° C. (content by LCMSMS)",day 330,11.68 µg/mL
same,"Stability in AB White, 8° C. (content by LCMSMS)",day 360,11.88 µg/mL
same,"Stability in AB White, 8° C. (content by LCMSMS)",day 390,11.85 µg/mL
same,"Stability in AB White, 8° C. (content by LCMSMS)",day 420,11.77 µg/mL
same,"Stability in AB White, 8° C. (content by LCMSMS)",day 450,11.80 µg/mL
same,"Stability in AB White, 8° C. (content by LCMSMS)",day 480,11.60 µg/mL
same,"Stability in AB White, 8° C. (content by LCMSMS)",day 510,11.33 µg/mL
same,"Stability in AB White, 8° C. (content by LCMSMS)",day 540,11.27 µg/mL
same,"Stability in AB White, 8° C. (content by LCMSMS)",day 570,11.21 µg/mL
same,"Stability in AB White, 21-25° C. (content by LCMSMS)",day 0,12.2 µg/mL
same,"Stability in AB White, 21-25° C. (content by LCMSMS)",day 1,11.8 µg/mL
same,"Stability in AB White, 21-25° C. (content by LCMSMS)",day 2,12.0 µg/mL
same,"Stability in AB White, 21-25° C. (content by LCMSMS)",day 3,11.9 µg/mL
same,"Stability in AB White, 21-25° C. (content by LCMSMS)",day 5,12.1 µg/mL
same,"Stability in AB White, 21-25° C. (content by LCMSMS)",day 8,12.3 µg/mL
same,"Stability in AB White, 21-25° C. (content by LCMSMS)",day 9,11.8 µg/mL
same,"Stability in AB White, 21-25° C. (content by LCMSMS)",day 10,11.7 µg/mL
same,"Stability in AB White, 21-25° C. (content by LCMSMS)",day 11,12.1 µg/mL
same,"Stability in AB White, 21-25° C. (content by LCMSMS)",day 12,11.9 µg/mL
same,"Stability in AB White, 21-25° C. (content by LCMSMS)",day 15,12.1 µg/mL
same,"Stability in AB White, 21-25° C. (content by LCMSMS)",day 16,12.1 µg/mL
same,"Stability in AB White, 21-25° C. (content by LCMSMS)",day 17,11.9 µg/mL
same,"Stability in AB White, 21-25° C. (content by LCMSMS)",day 18,11.8 µg/mL
same,"Stability in AB White, 21-25° C. (content by LCMSMS)",day 19,12.3 µg/mL
same,"Stability in AB White, 21-25° C. (content by LCMSMS)",day 22,11.9 µg/mL
same,"Stability in AB White, 21-25° C. (content by LCMSMS)",day 23,12.0 µg/mL
same,"Stability in AB White, 21-25° C. (content by LCMSMS)",day 24,12.1 µg/mL
same,"Stability in AB White, 21-25° C. (content by LCMSMS)",day 25,12.3 µg/mL
same,"Stability in AB White, 21-25° C. (content by LCMSMS)",day 26,12.1 µg/mL
same,"Stability in AB White, 21-25° C. (content by LCMSMS)",day 29,11.9 µg/mL
same,"Stability in AB White, 21-25° C. (content by LCMSMS)",day 30,11.9 µg/mL
same,"Stability in AB White, 21-25° C. (content by LCMSMS)",day 60,11.9 µg/mL
same,"Stability in AB White, 21-25° C. (content by LCMSMS)",day 90,12.0 µg/mL
same,"Stability in AB White, 21-25° C. (content by LCMSMS)",day 120,11.7 µg/mL
same,"Stability in AB White, 21-25° C. (content by LCMSMS)",day 150,11.7 µg/mL
same,"Stability in AB White, 21-25° C. (content by LCMSMS)",day 180,11.9 µg/mL
same,"Stability in AB White, 21-25° C. (content by LCMSMS)",day 210,11.4 µg/mL
same,"Stability in AB White, 21-25° C. (content by LCMSMS)",day 240,11.7 µg/mL
same,"Stability in AB White, 21-25° C. (content by LCMSMS)",day 270,11.9 µg/mL
same,"Stability in AB White, 21-25° C. (content by LCMSMS)",day 300,12.0 µg/mL
same,"Stability in AB White, 21-25° C. (content by LCMSMS)",day 330,11.4 µg/mL
same,"Stability in AB White, 21-25° C. (content by LCMSMS)",day 360,11.7 µg/mL
same,"Stability in AB White, 21-25° C. (content by LCMSMS)",day 390,11.4 µg/mL
same,"Stability in AB White, 21-25° C. (content by LCMSMS)",day 420,11.7 µg/mL
same,"Stability in AB White, 21-25° C. (content by LCMSMS)",day 450,11.7 µg/mL
same,"Stability in AB White, 21-25° C. (content by LCMSMS)",day 480,11.2 µg/mL
same,"Stability in AB White, 21-25° C. (content by LCMSMS)",day 510,11.2 µg/mL
same,"Stability in AB White, 21-25° C. (content by LCMSMS)",day 540,11.2 µg/mL
same,"Stability in AB White, 21-25° C. (content by LCMSMS)",day 570,11.2 µg/mL
